Measurements published in paper PMC9455983 (International Journal of Molecular Sciences, 2022).
Where two headings read alike, the source gives them in different places.

What was measured:
C57BL/6J mice [1] = assay: Opioid antagonist activity of 1968-22 against opioid agonists (tail-withdrawal assay)
mu-opioid receptor (MOR) = target: T1, mu-opioid receptor (MOR) (Rattus norvegicus, UniProt P33535); assay: MOR radioligand competition binding assay ([3H]-DAMGO); conditions: Mu screening results
T1 construct: Rat cortices were homogenized using 50 mM Tris, pH 7.4, and centrifuged at 16,500 rpm for 10 min; from tissue; host or cells: rat cortex membranes
T1 sequence (P33535 whole entry): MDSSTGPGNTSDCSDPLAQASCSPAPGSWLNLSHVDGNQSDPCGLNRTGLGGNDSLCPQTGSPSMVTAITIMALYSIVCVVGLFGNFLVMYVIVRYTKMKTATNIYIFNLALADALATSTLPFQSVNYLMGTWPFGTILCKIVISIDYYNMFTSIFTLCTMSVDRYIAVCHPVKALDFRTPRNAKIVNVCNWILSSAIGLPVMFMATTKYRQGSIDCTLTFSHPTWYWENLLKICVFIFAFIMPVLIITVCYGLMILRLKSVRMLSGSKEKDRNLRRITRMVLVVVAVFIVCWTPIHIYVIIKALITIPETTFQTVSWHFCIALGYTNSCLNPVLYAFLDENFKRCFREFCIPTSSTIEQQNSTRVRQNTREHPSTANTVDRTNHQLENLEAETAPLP
How it was run: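 Competition for 2 nM [3H]-DAMGO binding was measured in rat cortex membrane suspension (50 mM Tris, pH 7.4, plus 2 mg/mL bovine serum). After filtration through GF/B filters pre-soaked in BSA, filter radioactivity was counted. Data are two duplicate experiments reported as mean ± SD.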

C57BL/6J mice [2] = assay: Conditioned place preference / aversion; type: in vivo, mouse; conditions: 0.1, 1 or 10 nmol, i.c.v.; two days of place conditioning

In the case of `Cc1cc(O)cc(C)c1C[C@H]1CN([C@@H](Cc2c(C)cc(O)cc2C)CN2C(=N)NC[C@@H]2C)C(=N)N1` [1968-22], the “antagonism of SNC-80-induced antinociception” value (C57BL/6J mice [1]; 2.5 h pretreatment, 0.3 nmol i.c.v., SNC-80 100 nmol, i.c.v.) is reported as “significantly antagonized”, the “antagonism of morphine-induced antinociception” value (C57BL/6J mice [1]; 2.5 h pretreatment, 0.3 nmol i.c.v., morphine 10 mg/kg, i.p.) is reported as “did not have an effect” and the “pretreatment dose giving maximal antagonism of SNC-80” value (C57BL/6J mice [1]; i.c.v. pretreatment, SNC-80 100 nmol, i.c.v.) is reported as 3 nmol. For the same compound, the Ki (mu-opioid receptor (MOR); experiment 1, unit inferred, read-out: Ki (Exp 1)) was 7.68 nM, the Ki (mu-opioid receptor (MOR); experiment 2, unit inferred, read-out: Ki (Exp 2)) was 7.31 nM and the Ki (mu-opioid receptor (MOR); mean of Exp 1 and Exp 2, unit inferred, read-out: MEAN (Ki)) was 7.49 nM. For the same compound, the Ki (mu-opioid receptor (MOR); mean of two experiments, read-out: Ki) was 7 nM and the place conditioning result (C57BL/6J mice [2]) was “no significant preference or aversion”.
